In PubChem BioAssay AID248 (DTP/NCI, 2004):
Several values for one entry are separate records, joined by “and”; a condition that tells them apart may be missing. Equal values may be shown once. Inconclusive results and toxic doses are left out. Cut-off read from the data, not from the text of the source: active = T/C of 150% or more; inactive = T/C below 125%.

System: L1210 leukemia ip in BDF1 mice, survival T/C
Experiment: NCI In Vivo Anticancer Drug Screen. Data for tumor model L1210 Leukemia (intraperitoneal) in B6D2F1 (BDF1) mice
Conditions: endpoint: mean survival time, higher = longer survival
In short: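 Antitumor effect is assessed in tumor-bearing animals. Survival in the compound arm is compared with a vehicle-dosed control arm and expressed as their quotient.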

[1] = dose: 100.0 mg/kg/injection, schedule: Q01DX001 (ip), vehicle: saline
[2] = dose: 200.0 mg/kg/injection, schedule: Q01DX001 (ip), vehicle: saline
[3] = dose: 50.0 mg/kg/injection, schedule: Q01DX009 (ip), vehicle: saline
[4] = dose: 50.0 mg/kg/injection, schedule: Q01DX009 (ip), vehicle: saline with Tween-80
[5] = dose: 100.0 mg/kg/injection, schedule: Q01DX009 (ip), vehicle: saline with Tween-80
[6] = dose: 400.0 mg/kg/injection, schedule: Q01DX001 (ip), vehicle: saline
[7] = dose: 100.0 mg/kg/injection, schedule: Q01DX001 (ip), vehicle: other
[8] = dose: 200.0 mg/kg/injection, schedule: Q01DX001 (ip), vehicle: other
[9] = dose: 400.0 mg/kg/injection, schedule: Q01DX001 (ip), vehicle: other
[10] = dose: 100.0 mg/kg/injection, schedule: Q01DX009 (ip), vehicle: saline
[11] = dose: 100.0 mg/kg/injection, schedule: Q04DX003 (ip), vehicle: saline with Tween-80
[12] = dose: 200.0 mg/kg/injection, schedule: Q01DX009 (ip), vehicle: saline
[13] = dose: 200.0 mg/kg/injection, schedule: Q04DX003 (ip), vehicle: saline with Tween-80
[14] = dose: 400.0 mg/kg/injection, schedule: Q04DX003 (ip), vehicle: saline with Tween-80
[15] = dose: 100.0 mg/kg/injection, schedule: Q04DX003 (ip), vehicle: Klucel (hydroxypropylcellulose) (HPC)
[16] = dose: 200.0 mg/kg/injection, schedule: Q04DX003 (ip), vehicle: Klucel (hydroxypropylcellulose) (HPC)
[17] = dose: 400.0 mg/kg/injection, schedule: Q04DX003 (ip), vehicle: Klucel (hydroxypropylcellulose) (HPC)
[18] = dose: 100.0 mg/kg/injection, schedule: Q01DX009 (ip), vehicle: Klucel (hydroxypropylcellulose) (HPC)
[19] = dose: 200.0 mg/kg/injection, schedule: Q01DX009 (ip), vehicle: Klucel (hydroxypropylcellulose) (HPC)
[20] = dose: 400.0 mg/kg/injection, schedule: Q01DX009 (ip), vehicle: Klucel (hydroxypropylcellulose) (HPC)

Measured: T/C

C=C1CCC2CCCN2C1=O (stereo not given)
inactive: dose: 25.0 mg/kg/injection, schedule: Q01DX001 (ip), vehicle: saline 94 % of control | dose: 50.0 mg/kg/injection, schedule: Q01DX001 (ip), vehicle: saline 97 % of control | [1] 108 % of control | [2] 87 % of control

O[Si](O)([O][Sn]([c]1ccccc1)([c]1ccccc1)[c]1ccccc1)[O][Sn]([c]1ccccc1)([c]1ccccc1)[c]1ccccc1
inactive: dose: 25.0 mg/kg/injection, schedule: Q01DX009 (ip), vehicle: saline with Tween-80 106 % of control | [3] 96 % of control

CC(C)(O)Cc1ccc(Br)cc1
inactive: [4] 95 % of control | [5] 103 % of control | dose: 200.0 mg/kg/injection, schedule: Q01DX009 (ip), vehicle: saline with Tween-80 111 % of control

CCOc1cccc2c1OC(COS(=O)(=O)c1ccc(C)cc1)CO2 (stereo not given)
inactive: [1] 95 % of control | [2] 95 % of control | [6] 95 % of control

CN(C)CCC1(CCN(C)C)C(=O)CCc2ccccc21
inactive: [7] 97 % of control | [8] 103 % of control | [9] 103 % of control

NC(=O)NC12CC3CC(CC(C3)C1)C2
inactive: [1] 89 % of control | [2] 89 % of control | [6] 101 % of control

COc1cc(CC(=O)O)c(Br)cc1C
inactive: [10] 97 % of control | [11] 101 % of control | [12] 109 % of control | [13] 104 % of control | dose: 400.0 mg/kg/injection, schedule: Q01DX009 (ip), vehicle: saline 92 % of control | [14] 108 % of control

Nc1n[nH]c(=S)n1-c1ccc(Cl)cc1
inactive: [11] 88 % of control | [13] 93 % of control | [14] 93 % of control

CCC(C)C(N)C(=O)O (stereo not given)
inactive: [15] 103 % of control | [16] 106 % of control | [17] 101 % of control

CCCCOC(=O)CCCCC(=O)OCCCC
inactive: [18] 104 % of control | [19] 100 % of control | [20] 95 % of control

COc1ccc(/C(C#N)=C/c2ccc(N(C)CCC#N)cc2)cc1
inactive: dose: 12.5 mg/kg/injection, schedule: Q01DX009 (ip), vehicle: Klucel (hydroxypropylcellulose) (HPC) 103 % of control | dose: 25.0 mg/kg/injection, schedule: Q01DX009 (ip), vehicle: Klucel (hydroxypropylcellulose) (HPC) 100 % of control

C=Cc1ccc(Oc2ccccc2)cc1
inactive: [4] 98 % of control | [5] 112 % of control

O=C(CCl)c1ccccc1
inactive: dose: 100.0 mg/kg/injection, schedule: Q01DX001 (ip), vehicle: carboxymethylcellulose (CMC) 91 % of control | dose: 200.0 mg/kg/injection, schedule: Q01DX001 (ip), vehicle: carboxymethylcellulose (CMC) 95 % of control | dose: 400.0 mg/kg/injection, schedule: Q01DX001 (ip), vehicle: carboxymethylcellulose (CMC) 97 % of control

CC12CCC3=C(OCCO3)C1=CCC1C2CCC2(C)C(O)CCC12 (stereo not given)
inactive: dose: 50.0 mg/kg/injection, schedule: Q01DX001 (sc), vehicle: steriod suspending solution 95 % of control | dose: 100.0 mg/kg/injection, schedule: Q01DX001 (sc), vehicle: steriod suspending solution 91 % of control | dose: 200.0 mg/kg/injection, schedule: Q01DX001 (sc), vehicle: steriod suspending solution 103 % of control | dose: 400.0 mg/kg/injection, schedule: Q01DX001 (sc), vehicle: steriod suspending solution 101 % of control

CCOC(=O)C(C(=O)CC)C(COC)C(=O)OC (stereo not given)
inactive: [7] 92 % of control | [8] 96 % of control | [9] 97 % of control

O=S(=O)(O)c1ccc(CCCCCCCl)cc1
inactive: dose: 100.0 mg/kg/injection, schedule: Q04DX002 (ip), vehicle: saline 93 % of control | dose: 200.0 mg/kg/injection, schedule: Q04DX002 (ip), vehicle: saline 87 % of control

CC(/C=C/c1ccccc1)=N\NC(=O)NN
inactive: [1] 91 % of control | [2] 89 % of control | [6] 89 % of control

CC(=O)COC(=O)c1ccc(N(C)CC(C)=O)cc1
inactive: [15] 95 % of control | [16] 86 % of control | [17] 93 % of control

C/C(=C\c1ccccc1)C(=O)c1ccc(-c2ccccc2)cc1
inactive: [18] 97 % of control | [15] 100 % of control | [19] 93 % of control | [16] 100 % of control | [20] 92 % of control | [17] 93 % of control

CCN(CC)Cc1c(C)[nH]c2ccc(N(C)C)cc2c1=O
inactive: [3] 101 % of control | [10] 106 % of control | dose: 100.0 mg/kg/injection, schedule: Q04DX003 (ip), vehicle: saline 115 % of control | [12] 92 % of control | dose: 200.0 mg/kg/injection, schedule: Q04DX003 (ip), vehicle: saline 109 % of control

CCCCCCCCCCCCCCCCNCC(=O)Nc1ccc(S(=O)(=O)c2ccc(NC(=O)CNCCCCCCCCCCCCCCCC)cc2)cc1
inactive: dose: 4.0 mg/kg/injection, schedule: Q01DX015 (ip), vehicle: carboxymethylcellulose (CMC) 94 % of control | dose: 8.0 mg/kg/injection, schedule: Q01DX015 (ip), vehicle: carboxymethylcellulose (CMC) 94 % of control | dose: 16.0 mg/kg/injection, schedule: Q01DX015 (ip), vehicle: carboxymethylcellulose (CMC) 104 % of control | dose: 32.0 mg/kg/injection, schedule: Q01DX015 (ip), vehicle: carboxymethylcellulose (CMC) 93 % of control and 101 % of control | dose: 64.0 mg/kg/injection, schedule: Q01DX015 (ip), vehicle: carboxymethylcellulose (CMC) 117 % of control | [7] 89 % of control | [8] 100 % of control

CNC(=O)Oc1cccc(NC(=O)C2CC2)c1
inactive: [11] 94 % of control | [13] 94 % of control | [14] 96 % of control

C[CH2][Pb]([CH2]C)([CH2]C)[O]C(=O)C=C1CCCC1
inactive: dose: 2.5 mg/kg/injection, schedule: Q01DX009 (ip), vehicle: saline with Tween-80 101 % of control

CCC(CC)NCC(C)O (stereo not given)
inactive: dose: 75.0 mg/kg/injection, schedule: Q01DX001 (ip), vehicle: saline 105 % of control | dose: 150.0 mg/kg/injection, schedule: Q01DX001 (ip), vehicle: saline 108 % of control | dose: 300.0 mg/kg/injection, schedule: Q01DX001 (ip), vehicle: saline 102 % of control
